Square brackets hold non-standard residues; d marks the D form. * marks the point of attachment. Palmitoyl = CCCCCCCCCCCCCCCC(=O)*; Octanoyl = CCCCCCCC(=O)*; Hexanoyl = CCCCCC(=O)*
System: Normal human epidermal melanocytes, lightly pigmented
Test: Melanin inhibition in L-tyrosine-stimulated melanocytes (melanogenese assay)
Format: cell-based
Conditions: L-tyrosine 1 mM, 240 hours incubation, inhibition compared to stimulated control
Procedure: Melanocytes (Normal human epidermal melanocytes, lightly pigmented, 8th passage) were seeded in 24 well plates and cultured for 24 hours in culture medium (M254 supplemented with PMA free HMGS-2, Insulin 5 μg/ml, Penicilline 50 U/ml-Streptomycine 50 μg/ml Gentamycine 25 μg/ml) at 37° C., 5% CO2. The medium was then replaced by culture medium containing the test compounds or the reference (lipoic acid at 5 μg/ml) in presence of L-tyrosine (1 mM). The cells were then incubated for 240 hours with 2 renewals of culture medium containing the test compounds or the reference in presence of L-tyrosine after 96 and 168 hours of incubation. A non-stimulated and a stimulated control were performed in parallel. All experimental conditions were performed in n=3, except for control conditions in n=6. At the end of incubation, the culture supernatants were removed and the melanin was extracted by cell lysis using a 0.5 N NaOH solution. The optical density (OD) of each experimental point was measured at 405 nm and melanin quantity was calculated using melanin standards (standard curve from 0.39 to 100 μg/ml melanin). Results were expressed in μg/ml of melanin and in percentage of inhibition compared to stimulated control.

Substance | Melanin inhibition [%] (1 μM test compound) | Melanin inhibition [%] (10 μM test compound)
H-[dW]-Arg-Leu-NH2 [Ref-5] | −3 | 14
Hexanoyl-[dW]-Arg-Leu-NH2 [Ref-2] | 18 | 8
Octanoyl-[dW]-Arg-Leu-NH2 [Ref-4] | 13 | –
Palmitoyl-D-Trp-Arg-ATMPA-NH2 [Ref-6] | −3 | −12
Palmitoyl-D-Trp-NLe-Leu-NH2 [Ref-3] | 13 | –
Palmitoyl-[dW]-Met-Leu-NH2 [Ref-1] | 25 | 43

— US10836791B2, “Compounds” (DSM IP ASSETS B.V., priority 2016, dated 2020)
